{"source": "patent US20140259191A1", "about": "“FISH ANESTHETIC AND METHOD” (AQUA-MOR TECHNOLOGIES LTD., priority 2011, published 2014)", "key": {"carp": {"test_system": "carp", "assay": "Carp exposed to 75 ppm linalool for varying amounts of time, recovery observed", "assay_type": "in vivo, Cyprinus carpio", "design": "key to recovery state at 13 minutes after introduction of linalool / recovery state at 15 minutes after introduction of linalool / recovery state at 16 minutes after introduction of linalool / recovery state at 17 minutes after introduction of linalool / recovery state at 19 minutes after introduction of linalool / recovery state at 20 minutes after introduction of linalool / recovery state at 21 minutes after introduction of linalool / recovery state at 22 minutes after introduction of linalool / recovery state at 24 minutes after introduction of linalool / recovery state at 25 minutes after introduction of linalool / recovery state at 27 minutes after introduction of linalool / recovery state at 28 minutes after introduction of linalool / recovery state at 29 minutes after introduction of linalool / recovery state at 38 minutes after introduction of linalool / recovery state at 39 minutes after introduction of linalool / recovery state at 40 minutes after introduction of linalool / recovery state at 70 minutes after introduction of linalool / recovery state at 77 minutes after introduction of linalool / recovery state at 78 minutes after introduction of linalool: RT = removed to recovery tank; PR = partial recovery; TR = total recovery", "description": "16 healthy carp (Cyprinus carpio), average weight of 150 g, maintained in 6 liter tanks, were each exposed to 75 ppm of linalool (using the same formulation described in Example 1, 45 g of which were mixed into each treatment tank) for varying amounts of time. Pairs of fish were introduced to linalool simultaneously and then removed to recovery tanks at various times: 3, 8, 12, 15, 20, 30, 40 and 50 minutes after introduction, and each fish's recovery was observed over the course of two consecutive days. Complete anesthesia was achieved after 5 minutes of exposure."}, "catfish": {"test_system": "catfish", "assay": "Anesthesia of catfish by linalool added to tank water", "assay_type": "in vivo, Clarias gariepinus", "conditions": "100 ppm linalool", "description": "To a four liter tank containing […] 10-month old catfish (Clarias gariepinus) of respective weights 31 g, 14 g, 24 g and 9 g and respective body lengths 17 cm, 13 cm, 16 cm and 10 cm in water at 31° C. and pH 7 was added a formulation containing 1% linalool. The formulation was added to the water to a linalool concentration of 100 ppm in the water. The fish became relaxed 2 5 minutes after addition of linalool and after 4 minutes were completely anesthetized. At 5.5 minutes the fish were removed to a recovery tank with fresh water. After 7 minutes in the recovery tank the fish resumed normal behavior."}, "fish": {"test_system": "fish", "assay": "Exposure of fish to linalool at different concentrations and times (survival, anesthesia)", "assay_type": "in vivo", "description": "As will be appreciated by persons skilled in the art, for a given type of aquatic organism of a given size, there is an inverse (though not necessarily linear) relationship between the concentration of linalool in the water and the amount of time the organism needs to be exposed to the linalool in order to achieve sedation or anesthetization, and similarly there is an inverse (though not necessarily linear) relationship between the linalool concentration and the amount of time an organism may be exposed to the linalool in order before death occurs. […] On the other hand, the same fish were unaffected by exposure to 25 ppm linalool, even for long periods of time."}, "[1]": {"conditions": "carp 150 g, fish still exposed (nos. 3-16)"}, "[2]": {"conditions": "carp, removed to recovery tank at 8 minutes (fish nos. 3, 4)"}, "[3]": {"conditions": "carp, removed to recovery tank at 12 minutes (fish nos. 5, 6)"}, "[4]": {"conditions": "carp, removed to recovery tank at 15 minutes (fish nos. 7, 8)"}, "[5]": {"conditions": "carp, removed to recovery tank at 20 minutes (fish nos. 9, 10)"}, "[6]": {"conditions": "carp, removed to recovery tank at 30 minutes (fish nos. 11, 12)"}, "[7]": {"conditions": "carp, removed to recovery tank at 40 minutes (fish nos. 13, 14)"}}, "data": [{"smiles": "C=CC(C)(O)CCC=C(C)C", "note": "(stereo not drawn) [linalool]", "values": [{"measurement": "time of exposure until complete anesthesia", "setting": "carp; Example 8: carp 150 g", "value": 5, "unit": "min"}, {"measurement": "observed state at 5 minutes after introduction of linalool", "setting": "carp; carp 150 g", "value": "Loss of reflex reactivity (stage 5 anesthesia)"}, {"measurement": "observed state at 10 minutes after introduction of linalool", "setting": "carp; carp 150 g", "value": "opercular movements slow and irregular"}, {"measurement": "observed state at 1 minute after introduction of linalool", "setting": "carp; carp 150 g, all fish", "value": "Total loss of equilibrium"}, {"measurement": "observed state at 3 minutes after introduction of linalool", "setting": "carp; [1]", "value": "Total loss of reactivity to all but strong external stimuli"}, {"measurement": "observed state at 4 minutes after introduction of linalool", "setting": "carp; [1]", "value": "slow but regular opercular rate"}, {"measurement": "recovery state at 13 minutes after introduction of linalool", "setting": "carp; carp, removed to recovery tank at 3 minutes (fish nos. 1, 2)", "value": "TR"}, {"measurement": "recovery state at 15 minutes after introduction of linalool", "setting": "carp; [2]", "value": "PR"}, {"measurement": "recovery state at 16 minutes after introduction of linalool", "setting": "carp; [2]", "value": "TR and PR"}, {"measurement": "recovery state at 17 minutes after introduction of linalool", "setting": "carp; [2]", "value": "TR"}, {"measurement": "recovery state at 19 minutes after introduction of linalool", "setting": "carp; [3]", "value": "PR"}, {"measurement": "recovery state at 20 minutes after introduction of linalool", "setting": "carp; [3]", "value": "PR"}, {"measurement": "recovery state at 21 minutes after introduction of linalool", "setting": "carp; [3]", "value": "TR"}, {"measurement": "recovery state at 22 minutes after introduction of linalool", "setting": "carp; [3]", "value": "TR"}, {"measurement": "recovery state at 24 minutes after introduction of linalool", "setting": "carp; [4]", "value": "PR"}, {"measurement": "recovery state at 25 minutes after introduction of linalool", "setting": "carp; [4]", "value": "TR"}, {"measurement": "recovery state at 28 minutes after introduction of linalool", "setting": "carp; [4]", "value": "PR"}, {"measurement": "recovery state at 29 minutes after introduction of linalool", "setting": "carp; [4]", "value": "TR"}, {"measurement": "recovery state at 27 minutes after introduction of linalool", "setting": "carp; [5]", "value": "PR"}, {"measurement": "recovery state at 28 minutes after introduction of linalool", "setting": "carp; [5]", "value": "TR"}, {"measurement": "recovery state at 38 minutes after introduction of linalool", "setting": "carp; [6]", "value": "PR"}, {"measurement": "recovery state at 39 minutes after introduction of linalool", "setting": "carp; [6]", "value": "TR and PR"}, {"measurement": "recovery state at 40 minutes after introduction of linalool", "setting": "carp; [6]", "value": "TR"}, {"measurement": "recovery state at 70 minutes after introduction of linalool", "setting": "carp; [7]", "value": "TR"}, {"measurement": "recovery state at 77 minutes after introduction of linalool", "setting": "carp; [7]", "value": "PR"}, {"measurement": "recovery state at 78 minutes after introduction of linalool", "setting": "carp; [7]", "value": "TR"}, {"measurement": "recovery of fish nos. 15 and 16", "setting": "carp; carp, removed to recovery tank at 50 minutes", "value": "Fish nos. 15 and 16 never recovered."}, {"measurement": "time until fish completely anesthetized", "setting": "catfish; Example 19: catfish 9-31 g, 31° C., pH 7", "value": 4, "unit": "min"}, {"measurement": "time in recovery tank until normal behavior resumed", "setting": "catfish; Example 19: catfish, removed at 5.5 minutes", "value": 7, "unit": "min"}, {"measurement": "effect of exposure", "setting": "fish; fish exposed to 25 ppm linalool, even for long periods of time", "value": "unaffected"}, {"measurement": "survival", "setting": "fish; fish left for 40 minutes in 100 ppm linalool", "value": "did not survive"}, {"measurement": "survival", "setting": "fish; fish left for 50 minutes in 75 ppm linalool", "value": "did not survive"}, {"measurement": "anesthesia", "setting": "fish; fish left for five minutes in 100 ppm linalool", "value": "effectively anesthetized"}]}]}
